This is an account of results in ChEMBL document CHEMBL1143998, “Binding to human serum albumin of zidovudine (AZT) and novel AZT derivatives. Experimental and theoretical analyses” (Bioorg Med Chem, 2008).

Type in all cases: ADME
Details in all cases: isolated protein

The target in series [1] is T1, Albumin (Homo sapiens, UniProt P02768). Description: Binding affinity to defatted human serum albumin.
For series [2], the target named is T1, Albumin. Description: Binding affinity to defatted human serum albumin in presence of salicylic acid.
The target of series [3] is T1, Albumin. Description: Binding affinity to defatted human serum albumin relative to zidovudine.
For series [4], the target named is T1, Albumin. As to the kind of experiment: Binding affinity to fatty acid complexed human serum albumin.

T1 sequence (P02768 whole entry): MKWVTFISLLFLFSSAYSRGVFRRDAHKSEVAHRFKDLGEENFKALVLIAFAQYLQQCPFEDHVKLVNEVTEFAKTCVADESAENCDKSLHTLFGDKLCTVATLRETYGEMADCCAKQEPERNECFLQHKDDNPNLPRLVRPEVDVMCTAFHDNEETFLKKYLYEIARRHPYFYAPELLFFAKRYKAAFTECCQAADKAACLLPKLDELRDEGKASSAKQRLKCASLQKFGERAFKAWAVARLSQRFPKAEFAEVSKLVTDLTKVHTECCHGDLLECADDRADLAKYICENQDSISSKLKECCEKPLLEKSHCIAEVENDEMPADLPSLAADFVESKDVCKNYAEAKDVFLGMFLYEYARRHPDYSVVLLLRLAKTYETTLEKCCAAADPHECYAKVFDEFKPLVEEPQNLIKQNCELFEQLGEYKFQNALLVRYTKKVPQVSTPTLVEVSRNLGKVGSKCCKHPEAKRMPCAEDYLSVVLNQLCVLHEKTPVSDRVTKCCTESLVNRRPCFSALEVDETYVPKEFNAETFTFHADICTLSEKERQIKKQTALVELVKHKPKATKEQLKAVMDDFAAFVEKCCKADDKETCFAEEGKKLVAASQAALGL

As to `Cc1cn([C@H]2C[C@H](N=[N+]=[N-])[C@@H](COC(=O)C(=O)O)O2)c(=O)[nH]c1=O`, the Activity at Albumin [1] was found to be 47%; at Albumin [2] it was 7%; at Albumin [3], 5.93; at Albumin [4] it was 10.4%. Further, the Ka came out at 6201.3 L/mol on Albumin [1], 604.5 L/mol at Albumin [2] and 811.7 L/mol at Albumin [4].

As for `Cc1cn([C@H]2C[C@H](N=[N+]=[N-])[C@@H](COC(=O)C(=O)N3CCC[C@H]3C(=O)O)O2)c(=O)[nH]c1=O`, the Activity was 11.9% on Albumin [1], 9.4% at Albumin [2], 0.9 at Albumin [3] and 16.1% at Albumin [4]. In addition, the Ka stood at 944.6 L/mol at Albumin [1], 811.7 L/mol on Albumin [2] and 1341.9 L/mol on Albumin [4].

For `Cc1cn([C@H]2C[C@H](N=[N+]=[N-])[C@@H](COC(=O)c3ccncc3)O2)c(=O)[nH]c1=O`, the Activity on Albumin [1] turned out to be 19.8%; at Albumin [3] it was 1.64; at Albumin [4] it was 38.8%. Also, the results for the Ka on Albumin [1] and at Albumin [4] were 1709.8 L/mol and 3277.3 L/mol, respectively.

`Cc1cn([C@H]2C[C@H](N=[N+]=[N-])[C@@H](COC(=O)C(=O)N[C@@H](Cc3ccc(O)cc3)C(=O)O)O2)c(=O)[nH]c1=O`: the Activity was found to be 14.9% at Albumin [1], 9.4% at Albumin [2], 1.17 at Albumin [3] and 10.4% at Albumin [4]. In addition, the Ka on Albumin [1] was found to be 1224.4 L/mol; at Albumin [2] it was 811.7 L/mol; on Albumin [4] it was 890.9 L/mol.

With `Cc1cn([C@H]2C[C@H](N=[N+]=[N-])[C@@H](COC(=O)C(=O)N[C@H](C(=O)O)C(C)C)O2)c(=O)[nH]c1=O`, the Activity was 17.4% at Albumin [1], 15.2% on Albumin [2], 1.47 on Albumin [3] and 11.9% on Albumin [4]. In addition, the Ka at Albumin [1] turned out to be 1535 L/mol; at Albumin [2], 1312.6 L/mol; at Albumin [4], 944.6 L/mol.

Regarding `Cc1cn([C@H]2C[C@H](N=[N+]=[N-])[C@@H](COC(=O)C(=O)N[C@@H](Cc3c[nH]c4ccccc34)C(=O)O)O2)c(=O)[nH]c1=O`, the Activity amounted to 20.5% at Albumin [1], 17.6% at Albumin [2], 1.73 at Albumin [3] and 23.7% at Albumin [4]. Further, the Ka at Albumin [1] was 1803.2 L/mol; at Albumin [2] it was 1519.8 L/mol; on Albumin [4], 2172.1 L/mol.

Regarding `Cc1cn([C@H]2C[C@H](N=[N+]=[N-])[C@@H](COC(=O)C(=O)N[C@@H](Cc3ccccc3)C(=O)O)O2)c(=O)[nH]c1=O`, the Activity is 13.6% on Albumin [1], 8.3% at Albumin [2], 1.12 on Albumin [3] and 5.5% on Albumin [4]. The Ka was 1174.4 L/mol at Albumin [1], 716.7 L/mol at Albumin [2] and 436.6 L/mol on Albumin [4].

On to `CC[C@H](C)[C@H](NC(=O)C(=O)OC[C@H]1O[C@@H](n2cc(C)c(=O)[nH]c2=O)C[C@@H]1N=[N+]=[N-])C(=O)O`, for which the Activity was 35.2% on Albumin [1], 4.6% at Albumin [2], 3.6 at Albumin [3] and 7.6% on Albumin [4]. The Ka at Albumin [1] is on record as 3765.4 L/mol; on Albumin [2], 397.2 L/mol; on Albumin [4], 575.2 L/mol.

Turning to `Cc1cn([C@H]2C[C@H](N=[N+]=[N-])[C@@H](COC(=O)C(=O)N[C@@H](CC(C)C)C(=O)O)O2)c(=O)[nH]c1=O`, the Activity on Albumin [1] is listed as 26.5%; on Albumin [2], 5.2%; at Albumin [3] it was 2.35; at Albumin [4], 8.9%. Also, the figures for the Ka at Albumin [1], at Albumin [2] and at Albumin [4] were 2457 L/mol, 449 L/mol and 683.2 L/mol, respectively.
